As usually defined, the inhibition is the percentage by which the read-out fell short of the control. What is called viability is a read-out of living cells in per cent, often relative to untreated cells. A higher viability goes with better survival. Usually IC50 stands for the point on the concentration scale where inhibition reaches its midpoint. As usually defined, the Vmax is the rate approached at saturating substrate.

For data set [1], the target named is T1, mushroom tyrosinase (Agaricus bisporus, UniProt C7FF04). The experiment in a line: Mushroom tyrosinase inhibitory assay (L-tyrosine substrate). It is filed as biochemical. Conditions: for inhibition at 50 µM / Tyrosinase Inhibition (%): L-tyrosine as substrate, mean ± SEM, NI means no inhibition, 50 μM; for IC50: mushroom tyrosinase, L-tyrosine, read-out: IC50. As for the experimental part: The experiment was repeated three times. Mushroom tyrosinase inhibitions % were calculated using:% Inhibition = [1 − (A/B)] × 100(1) where A is the absorbance of the test compound and B is the absorbance of the blank.
Log-linear curves were plotted, and their equations were determined.
Target sequence in this assay (C7FF04 1-392 limits assumed): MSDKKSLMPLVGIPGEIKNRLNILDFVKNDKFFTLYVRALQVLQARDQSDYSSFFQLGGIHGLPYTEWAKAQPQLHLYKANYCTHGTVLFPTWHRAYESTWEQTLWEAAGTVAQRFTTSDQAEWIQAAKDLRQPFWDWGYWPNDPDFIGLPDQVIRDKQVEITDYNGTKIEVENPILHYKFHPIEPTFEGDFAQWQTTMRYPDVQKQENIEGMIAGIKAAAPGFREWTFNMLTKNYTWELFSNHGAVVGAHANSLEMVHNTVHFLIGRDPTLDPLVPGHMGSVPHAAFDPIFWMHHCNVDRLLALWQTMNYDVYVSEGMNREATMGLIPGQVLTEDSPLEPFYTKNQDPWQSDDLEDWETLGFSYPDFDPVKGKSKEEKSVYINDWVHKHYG

A short description of data set [2]: EZ-cytox cell viability assay. As to conditions: mouse, B16F10 melanoma cells, 20 µM. The class given is cell-based, murine. As for the experimental part:
(§1) EZ-cytox assays were performed to examine whether these compounds are cytotoxic.
(§2) B16F10 murine melanoma cells were purchased from the American Type Culture Collection (ATCC, Manassas, VA, USA). Cells were cultured in Dulbecco’s modified Eagle’s medium (10% fetal bovine serum (FBS), and 1% streptomycin) obtained from Gibco/Thermo Fisher Scientific (Carlsbad, CA, USA) at 37 °C in a 5% CO2 environment. These cultured cells were used for cell viability, melanin content, and cellular tyrosinase inhibitory assays.
(§3) EZ-cytox assays were performed on 1c, 1h, and 2a, according to previously described. B16F10 cells were seeded in a 96-well plate at a density of 5 × 10^4 cells/well and incubated at 37 °C in a humidified 5% CO2 atmosphere overnight. Cells were then treated with different concentrations of 1c, 1h, or 2a (0, 1, 2, 5, 10, or 20 µM) and incubated for 24 h under the same conditions. EZ-cytox solution (10 µL) was then added and the plate was incubated for 3 h at 37 °C in a humidified 5% CO2 atmosphere. Optical densities of wells were measured at 450 nm using an ELISA reader. All experiments were independently repeated three times.

Data set [3] has as its system B16F10 melanoma cells. The experiment in a line: EZ-cytox cell viability assay. It is filed as cell-based, murine. Conditions: 1–20 µM, 24 h. As for the experimental part: as §1, §2, §3
Data set [4] concerns the target T1, mushroom tyrosinase. The data set is described as follows: Kinetic analysis of mushroom tyrosinase inhibition, Lineweaver–Burk plots. Conditions: for Mode of tyrosinase inhibition: Lineweaver–Burk analysis, L-tyrosine as substrate. The class given is biochemical. As for the experimental part:
Briefly, 170 μL of a mixture of an aqueous solution of L-[…].0, 2.0, 4.0, or 8.0 mM and 50 mM of potassium phosphate (pH 6.5) was added to a 96-well plate. […] Lineweaver-Burk plots were used to determine Vmax (maximal reaction rates) and KM (Michaelis-Menten constants) of mushroom tyrosinase activities.
Target sequence in this assay (C7FF04 1-392): as the sequence (C7FF04 1-392 limits assumed) above

Data set [5] addresses T2, tyrosinase in B16F10 melanoma cells (Mus musculus, UniProt P11344).
T2 sequence (P11344 19-533): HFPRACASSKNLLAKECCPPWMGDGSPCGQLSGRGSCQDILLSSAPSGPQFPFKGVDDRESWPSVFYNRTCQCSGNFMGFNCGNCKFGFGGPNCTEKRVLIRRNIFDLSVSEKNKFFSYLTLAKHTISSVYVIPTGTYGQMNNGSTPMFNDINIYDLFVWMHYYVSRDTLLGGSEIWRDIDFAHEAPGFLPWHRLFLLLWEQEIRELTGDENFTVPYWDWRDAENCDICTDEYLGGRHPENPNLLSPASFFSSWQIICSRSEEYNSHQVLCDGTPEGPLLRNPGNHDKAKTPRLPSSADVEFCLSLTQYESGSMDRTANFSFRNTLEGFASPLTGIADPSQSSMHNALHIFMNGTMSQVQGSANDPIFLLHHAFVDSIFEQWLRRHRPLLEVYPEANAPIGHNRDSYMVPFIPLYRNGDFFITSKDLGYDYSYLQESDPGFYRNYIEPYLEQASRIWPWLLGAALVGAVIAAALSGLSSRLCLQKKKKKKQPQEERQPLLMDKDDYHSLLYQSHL
The experiment in a line: Cellular tyrosinase activity in α-MSH plus IBMX-stimulated B16F10 melanoma cells. As to conditions: 48 h.
Experimental: Cells were washed with PBS two or three times, lysed with a 100 μL of buffer (90 μL of PBS (50 mM), 5 μL of PMSF (0.1 mM), and 5 μL of 1% Triton X-100), frozen at −80 °C for 30 min, and centrifuged at 12,000 rpm for 30 min at 4 °C. Lysate supernatants (80 µL) were mixed with 20 µL of L-dopa (2 mg/mL) in a 96-well plate and incubated at 37 °C for 15 min. […] All the experiments were independently repeated three times.

The test system of data set [6] is B16F10 melanoma cells. The data set is described as follows: Melanin content assay in α-MSH plus IBMX-stimulated B16F10 melanoma cells. The class given is cell-based, murine. Conditions: 48 h. As for the experimental part: Melanin contents in B16F10 cells were assessed by measuring optical densities spectrophotometrically. […] After washing cells with PBS two or three times, they were incubated for 1 h in 100 µL of 1N NaOH solution at 60 °C. […] All experiments were independently repeated three times.

The mark [7] stands for this setting: 1.56 μM, read-out: Average of Inhibition (%).
Where [8] appears, read: 3.13 μM, read-out: Average of Inhibition (%).
Setting [9] is: 6.25 μM, read-out: Average of Inhibition (%).
[10] abbreviates: 6.25 μM, read-out: Inhibition (%), single determinations.
The mark [11] stands for this setting: 12.50 μM, read-out: Average of Inhibition (%).
[12] abbreviates: 12.50 μM, read-out: Inhibition (%), single determinations.
Where [13] appears, read: 25.00 μM, read-out: Average of Inhibition (%).
Setting [14] is: 25.00 μM, read-out: Inhibition (%), single determinations.
The mark [15] stands for this setting: inhibitor 10 μM, L-tyrosine 1.0–8.0 mM.
Where [16] appears, read: inhibitor 20 μM, L-tyrosine 1.0–8.0 mM.
Setting [17] is: inhibitor 40 μM, L-tyrosine 1.0–8.0 mM.
Setting [18] is: not dependent on inhibitor concentration.

Values joined by “and” are separate entries in the source; they are usually repeats but may differ in a detail not shown here. Identical values can stand only once. “Also recorded” adds a separate entry of the source. Like-named read-outs stand apart in the source and are kept apart here. A value given as a limit tells only on which side of the number the result lay.

For the compound `COc1ccc2c(c1)oc(=O)c1ccccc12` [Compound 1b, 3-Methoxy-6H-benzo[c]chromen-6-one], the inhibition at 50 µM on mushroom tyrosinase [1] was under 0%.

Consider `O=c1oc2cc(O)cc(O)c2c2ccccc12` [Compound 1c, 1,3-Dihydroxy-6H-benzo[c]chromen-6-one], for which the viability at 24 h, 20 µM in data set [2] was determined as 71.4%. For the same compound, in the data set on B16F10 melanoma cells [3], the Cytotoxic effect result is “weakly cytotoxic”. The “Inhibition (%), single determinations” value at mushroom tyrosinase [1] (1.56 μM) is 4.01% and 2.57%; at mushroom tyrosinase [1] (3.13 μM), 10.84% and 9.94%; at mushroom tyrosinase [1] (6.25 μM), 25.08% and 33.10%; at mushroom tyrosinase [1] (12.50 μM, 12.5 µM), 45.18% and 48.37%; at mushroom tyrosinase [1] (25.00 μM), 61.85%. In addition, the inhibition at 1.56 µM on mushroom tyrosinase [1] (setting [7]) is 3.06 ± 0.47%; at mushroom tyrosinase [1] (1.56 μM, read-out: Inhibition (%), single determinations) it was 2.61%. In addition, the inhibition at 3.13 µM on mushroom tyrosinase [1] (setting [8]) was found to be 10.1 ± 0.37%; on mushroom tyrosinase [1] (3.13 μM, read-out: Inhibition (%), single determinations), 9.61%. The figures for the inhibition at 6.25 µM on mushroom tyrosinase [1] (setting [9]) and on mushroom tyrosinase [1] (setting [10]) were 28.5 ± 2.39% and 27.3%, respectively. The inhibition at 12.5 µM at mushroom tyrosinase [1] (setting [11]) is 45.8 ± 1.37%; at mushroom tyrosinase [1] (setting [12]), 43.7%. Further, the results for the inhibition at 25 µM on mushroom tyrosinase [1] (setting [13]) and at mushroom tyrosinase [1] (setting [14]) were 61.21 ± 0.32% and 60.9%, respectively. The “Tyrosinase Inhibition (%)” value on mushroom tyrosinase [1] stood at 68.93 ± 0.67%. In addition, the inhibition at 50 µM on mushroom tyrosinase [1] worked out at 69%. On mushroom tyrosinase [1], the IC50 was found to be 18.1 ± 0.25 µM. In addition, the “Mode of tyrosinase inhibition” value at mushroom tyrosinase [4] is “competitive inhibitors”. The maximum rate (Vmax) on mushroom tyrosinase [4] (setting [15]), on mushroom tyrosinase [4] (setting [16]), at mushroom tyrosinase [4] (setting [17]) and at mushroom tyrosinase [4] (setting [18]) was 0.027 mM/min in each case.

On to `COc1cc(OC)c2c(c1)oc(=O)c1ccccc12` [Compound 1d, 1,3-Dimethoxy-6H-benzo[c]chromen-6-one], for which the inhibition at 50 µM against mushroom tyrosinase [1] was under 0%.

For `O=c1oc2cc(O)cc(O)c2c2ccc(O)cc12` [Compound 1f, 1,3,8-Trihydroxy-6H-benzo[c]chromen-6-one], at mushroom tyrosinase [1], the “Tyrosinase Inhibition (%)” value came to 12.68 ± 6.09% and the inhibition at 50 µM was 13%.

For the compound `COc1ccc2c(c1)c(=O)oc1cc(O)ccc12` [Compound 1g, 3-Hydroxy-8-methoxy-6H-benzo[c]chromen-6-one], the inhibition at 50 µM on mushroom tyrosinase [1] was under 0%.

`COc1ccc2c(c1)oc(=O)c1cc(OC)ccc12` [Compound 1i, 3,8-Dimethoxy-6H-benzo[c]chromen-6-one] yielded an inhibition at 50 µM against mushroom tyrosinase [1] of under 0%.

On mushroom tyrosinase [1], `COc1cc(OC)c2c(c1)oc(=O)c1cc(OC)ccc12` [Compound 1j, 1,3,8-Trimethoxy-6H-benzo[c]chromen-6-one] came in with an inhibition at 50 µM of under 0%.

In the case of `OCc1ccccc1-c1ccc(O)cc1O` [Compound 2a, 2′-(Hydroxymethyl)-[1,1′-biphenyl]-2,4-diol], the Cellular tyrosinase activity result was “greater at 10 μM than kojic acid at 20 μM” in data set [5] (10 μM, α-MSH plus IBMX, kojic acid 20 μM as comparator); “much higher than that of kojic acid; also recorded: reduced tyrosinase activity to the untreated control levels” in data set [5] (20 μM, α-MSH plus IBMX, kojic acid 20 µM as comparator); “more strongly than KA; also recorded: decreased significantly and concentration-dependently; also recorded: effectively and dose-dependently” in data set [5] (5, 10, 20 μM, α-MSH (1 μM) plus IBMX (200 μM)). The Cytotoxic effect result with B16F10 melanoma cells [3] is on record as “No significant cytotoxic effect; also recorded: not cytotoxic”. In addition, the “Inhibition (%), single determinations” value at mushroom tyrosinase [1] (1.56 μM) was 0.27% and 0.72% and 1.06%; on mushroom tyrosinase [1] (6.25 μM), 31.66% and 31.22%; on mushroom tyrosinase [1] (12.50 μM, 12.5 µM), 50.39% and 54.31%; on mushroom tyrosinase [1] (25.00 μM) it was 68.71% and 69.37%. In addition, the inhibition at 1.56 µM at mushroom tyrosinase [1] (setting [7]) was determined as 0.68 ± 0.23%. Besides, the inhibition at 3.13 µM at mushroom tyrosinase [1] (setting [8]) stood at 15.1 ± 6.53%. The inhibition at 6.25 µM at mushroom tyrosinase [1] (setting [9]) is 31.71 ± 0.3%; at mushroom tyrosinase [1] (setting [10]) it was 32.2%. For the same compound, the results for the inhibition at 12.5 µM on mushroom tyrosinase [1] (setting [11]) and at mushroom tyrosinase [1] (setting [12]) were 53.5 ± 1.62% and 55.8%, respectively. For the same compound, the figures for the inhibition at 25 µM at mushroom tyrosinase [1] (setting [13]) and at mushroom tyrosinase [1] (setting [14]) were 69.3 ± 0.32% and 69.8%, respectively. Besides, the “Tyrosinase Inhibition (%)” value on mushroom tyrosinase [1] was 75.92 ± 2.19%. The compound also displayed an inhibition at 50 µM against mushroom tyrosinase [1] of 76%. In addition, the IC50 on mushroom tyrosinase [1] amounted to 15.7 ± 0.4 µM. The Melanin content entry in the data set with B16F10 melanoma cells [6] (5 µM, kojic acid 20 µM as comparator) is “more potently than kojic acid”; with B16F10 melanoma cells [6] (20 μM, kojic acid 20 µM as comparator), “more so than kojic acid”; in the data set with B16F10 melanoma cells [6] (5, 10, 20 μM), “more strongly than KA; also recorded: reduced melanin levels significantly and concentration-dependently; also recorded: effectively and dose-dependently”. At mushroom tyrosinase [4], the “Mode of tyrosinase inhibition” value was “competitive inhibitors”. The “Vmax” value on mushroom tyrosinase [4] (setting [15]), at mushroom tyrosinase [4] (setting [16]), on mushroom tyrosinase [4] (setting [17]) and on mushroom tyrosinase [4] (setting [18]) was 0.029 mM/min each time.

As to `COc1ccc(-c2ccccc2CO)c(O)c1` [Compound 2b, 2′-(Hydroxymethyl)-4-methoxy-[1,1′-biphenyl]-2-ol], the inhibition at 50 µM against mushroom tyrosinase [1] was under 0%.

For the compound `OCc1ccccc1-c1c(O)cc(O)cc1O` [Compound 2c, 2′-(Hydroxymethyl)-[1,1′-biphenyl]-2,4,6-triol], on mushroom tyrosinase [1], the “Tyrosinase Inhibition (%)” value is listed as 19.78 ± 15.84% and the inhibition at 50 µM turned out to be 20%.

In turn, `COc1cc(O)c(-c2ccccc2CO)c(OC)c1` [Compound 2d, 2′-(Hydroxymethyl)-4,6-dimethoxy-[1,1′-biphenyl]-2-ol] had an inhibition at 50 µM against mushroom tyrosinase [1] of under 0%.

Turning to `OCc1cc(O)ccc1-c1ccc(O)cc1O` [Compound 2e, 2′-(Hydroxymethyl)-[1,1′-biphenyl]-2,4,4′-triol], on mushroom tyrosinase [1], the inhibition at 50 µM is under 0%.

The compound `COc1ccc(-c2ccc(O)cc2O)c(CO)c1` [Compound 2f, 2′-(Hydroxymethyl)-4′-methoxy-[1,1′-biphenyl]-2,4-diol] showed an inhibition at 50 µM against mushroom tyrosinase [1] of 47.9 ± 12.8%.

`COc1ccc(-c2ccc(OC)cc2CO)c(O)c1` [Compound 2g, 2′-(Hydroxymethyl)-4,4′-dimethoxy-[1,1′-biphenyl]-2-ol] displayed an inhibition at 50 µM at mushroom tyrosinase [1] of under 0%.

In the case of `COc1ccc(-c2c(O)cc(O)cc2O)c(CO)c1` [Compound 2h, 2′-(Hydroxymethyl)-4′-methoxy-[1,1′-biphenyl]-2,4,6-triol], on mushroom tyrosinase [1], the “Tyrosinase Inhibition (%)” value worked out at 26.30 ± 0.75% and the inhibition at 50 µM came to 26%.

Regarding `COc1ccc(-c2c(O)cc(OC)cc2OC)c(CO)c1` [Compound 2i, 2′-(Hydroxymethyl)-4,4′,6-trimethoxy-[1,1′-biphenyl]-2-ol], the inhibition at 50 µM against mushroom tyrosinase [1] is under 0%.

(Values after paper PMC8199067, “Urolithin and Reduced Urolithin Derivatives as Potent Inhibitors of Tyrosinase and Melanogenesis: Importance of the 4-Substituted Resorcinol Moiety” (International Journal of Molecular Sciences, 2021).)
